From the kinase profiling compilation of Christmann-Franck et al. (2016)
Values joined by “and” are separate entries in the source; they are usually repeats but may differ in a detail not shown here. Identical values can stand only once.

Key:
Assay in all cases: KINOMEscan competition binding
Settings in all cases: compound 10.0 µM
CDK4 CCND1 (human) = CDK4 CCND1 (human) (UniProt P11802+P24385)
WNK3 (human) = WNK3 (human) (UniProt Q9BYP7)
IKBKB (human) = IKBKB (human) (UniProt O14920)
KIT (human) = KIT (human) (UniProt P10721)
KIT (human), sequence (P10721 whole entry, looked up): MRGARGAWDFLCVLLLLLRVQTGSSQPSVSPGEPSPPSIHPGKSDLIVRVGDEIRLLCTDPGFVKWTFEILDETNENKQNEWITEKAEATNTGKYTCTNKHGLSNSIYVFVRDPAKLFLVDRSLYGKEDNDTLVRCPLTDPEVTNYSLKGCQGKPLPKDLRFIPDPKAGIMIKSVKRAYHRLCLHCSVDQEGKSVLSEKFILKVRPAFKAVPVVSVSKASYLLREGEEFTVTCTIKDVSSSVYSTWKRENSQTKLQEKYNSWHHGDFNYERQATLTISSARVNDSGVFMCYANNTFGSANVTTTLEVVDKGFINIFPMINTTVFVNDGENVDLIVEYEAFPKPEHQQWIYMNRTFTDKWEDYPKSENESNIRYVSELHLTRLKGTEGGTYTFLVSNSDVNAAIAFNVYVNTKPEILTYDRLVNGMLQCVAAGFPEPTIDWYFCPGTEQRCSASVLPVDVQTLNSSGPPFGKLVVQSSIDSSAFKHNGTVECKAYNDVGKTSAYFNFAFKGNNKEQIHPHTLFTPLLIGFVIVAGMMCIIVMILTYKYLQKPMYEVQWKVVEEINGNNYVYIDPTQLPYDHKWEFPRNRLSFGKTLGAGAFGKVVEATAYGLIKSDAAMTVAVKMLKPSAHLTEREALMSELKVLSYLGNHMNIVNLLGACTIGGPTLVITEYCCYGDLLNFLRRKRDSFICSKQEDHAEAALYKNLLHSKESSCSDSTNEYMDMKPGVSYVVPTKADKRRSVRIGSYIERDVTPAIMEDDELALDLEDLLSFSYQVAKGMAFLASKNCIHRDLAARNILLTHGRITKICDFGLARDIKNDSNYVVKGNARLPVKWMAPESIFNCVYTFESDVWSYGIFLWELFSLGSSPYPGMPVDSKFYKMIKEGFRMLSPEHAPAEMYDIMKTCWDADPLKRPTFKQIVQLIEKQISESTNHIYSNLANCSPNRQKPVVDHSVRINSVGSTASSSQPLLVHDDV

ALK (human) = ALK (human) (UniProt Q9UM73)
STK32B (human) = STK32B (human) (UniProt Q9NY57)
PIP4K2B (human) = PIP4K2B (human) (UniProt P78356)
MAP3K2 (human) = MAP3K2 (human) (UniProt Q9Y2U5)
RPS6KA4 KD2 (human) = RPS6KA4 KD2 (human) (UniProt O75676)
MAP3K11 (human) = MAP3K11 (human) (UniProt Q16584)
PDGFRB (human) = PDGFRB (human) (UniProt P09619)
DAPK2 (human) = DAPK2 (human) (UniProt Q9UIK4)
MAP3K6 (human) = MAP3K6 (human) (UniProt O95382)
DYRK1A (human) = DYRK1A (human) (UniProt Q13627)
CSNK1A1 (human) = CSNK1A1 (human) (UniProt P48729)
IGF1R (human) = IGF1R (human) (UniProt P08069)
BRAF (human) = BRAF (human) (UniProt P15056)
TAOK1 (human) = TAOK1 (human) (UniProt Q7L7X3)
EPHB2 (human) = EPHB2 (human) (UniProt P29323)
NEK5 (human) = NEK5 (human) (UniProt Q6P3R8)
PRKD2 (human) = PRKD2 (human) (UniProt Q9BZL6)
SRMS (human) = SRMS (human) (UniProt Q9H3Y6)
CDK15 (human) = CDK15 (human) (UniProt Q96Q40)
IKBKE (human) = IKBKE (human) (UniProt Q14164)
IKBKE (human), sequence (Q14164 whole entry, looked up): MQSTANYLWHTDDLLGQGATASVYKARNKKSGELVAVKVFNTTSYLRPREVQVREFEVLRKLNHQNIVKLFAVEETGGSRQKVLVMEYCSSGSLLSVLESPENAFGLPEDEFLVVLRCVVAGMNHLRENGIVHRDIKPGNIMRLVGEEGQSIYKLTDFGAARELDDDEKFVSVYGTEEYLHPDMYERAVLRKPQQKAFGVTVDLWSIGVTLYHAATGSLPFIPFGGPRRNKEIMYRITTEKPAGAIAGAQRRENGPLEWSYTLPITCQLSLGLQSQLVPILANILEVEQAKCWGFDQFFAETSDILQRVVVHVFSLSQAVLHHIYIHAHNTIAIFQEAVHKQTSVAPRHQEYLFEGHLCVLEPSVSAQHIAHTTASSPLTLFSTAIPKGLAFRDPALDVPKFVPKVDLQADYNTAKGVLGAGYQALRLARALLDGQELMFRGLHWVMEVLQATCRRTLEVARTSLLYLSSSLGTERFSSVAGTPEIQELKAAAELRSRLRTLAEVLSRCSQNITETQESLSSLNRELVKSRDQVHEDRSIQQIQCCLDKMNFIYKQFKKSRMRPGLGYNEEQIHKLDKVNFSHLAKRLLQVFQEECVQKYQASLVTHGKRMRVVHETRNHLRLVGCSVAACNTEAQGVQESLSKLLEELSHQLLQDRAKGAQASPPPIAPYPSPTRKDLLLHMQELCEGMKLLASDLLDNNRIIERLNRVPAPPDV

BUB1 (human) = BUB1 (human) (UniProt O43683)
GSG2 (human) = GSG2 (human) (UniProt Q8TF76)
GSK3A (human) = GSK3A (human) (UniProt P49840)
[1] = target: TYK2 JH2 pseudokinase (human) (UniProt P29597)
STK24 (human) = STK24 (human) (UniProt Q9Y6E0)
ACVR1B (human) = ACVR1B (human) (UniProt P36896)
ACVR1B (human), sequence (P36896 whole entry, looked up): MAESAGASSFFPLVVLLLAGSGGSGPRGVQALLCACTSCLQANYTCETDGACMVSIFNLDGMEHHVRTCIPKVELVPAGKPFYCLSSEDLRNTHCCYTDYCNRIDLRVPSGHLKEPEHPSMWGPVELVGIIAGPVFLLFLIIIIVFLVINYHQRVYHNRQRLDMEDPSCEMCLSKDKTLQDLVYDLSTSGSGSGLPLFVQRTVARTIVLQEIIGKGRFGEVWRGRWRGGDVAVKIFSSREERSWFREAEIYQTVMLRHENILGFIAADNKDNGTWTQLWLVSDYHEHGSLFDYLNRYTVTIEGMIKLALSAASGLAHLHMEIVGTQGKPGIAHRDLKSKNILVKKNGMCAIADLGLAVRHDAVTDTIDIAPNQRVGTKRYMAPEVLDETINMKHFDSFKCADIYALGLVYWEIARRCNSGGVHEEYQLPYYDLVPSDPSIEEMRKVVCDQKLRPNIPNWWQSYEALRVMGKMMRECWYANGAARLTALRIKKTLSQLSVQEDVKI

[2] = tested on: KIT (human), P10721 [A829P]
KIT (human), P10721 [A829P], sequence (P10721 whole entry A829P, looked up): as the sequence (P10721 whole entry, looked up) above, with A829P counted along it

MAK (human) = MAK (human) (UniProt P20794)
SIK1 (human) = SIK1 (human) (UniProt P57059)
PIK3CG (human) = PIK3CG (human) (UniProt P48736)
PIK3CG (human), sequence (P48736 whole entry, looked up): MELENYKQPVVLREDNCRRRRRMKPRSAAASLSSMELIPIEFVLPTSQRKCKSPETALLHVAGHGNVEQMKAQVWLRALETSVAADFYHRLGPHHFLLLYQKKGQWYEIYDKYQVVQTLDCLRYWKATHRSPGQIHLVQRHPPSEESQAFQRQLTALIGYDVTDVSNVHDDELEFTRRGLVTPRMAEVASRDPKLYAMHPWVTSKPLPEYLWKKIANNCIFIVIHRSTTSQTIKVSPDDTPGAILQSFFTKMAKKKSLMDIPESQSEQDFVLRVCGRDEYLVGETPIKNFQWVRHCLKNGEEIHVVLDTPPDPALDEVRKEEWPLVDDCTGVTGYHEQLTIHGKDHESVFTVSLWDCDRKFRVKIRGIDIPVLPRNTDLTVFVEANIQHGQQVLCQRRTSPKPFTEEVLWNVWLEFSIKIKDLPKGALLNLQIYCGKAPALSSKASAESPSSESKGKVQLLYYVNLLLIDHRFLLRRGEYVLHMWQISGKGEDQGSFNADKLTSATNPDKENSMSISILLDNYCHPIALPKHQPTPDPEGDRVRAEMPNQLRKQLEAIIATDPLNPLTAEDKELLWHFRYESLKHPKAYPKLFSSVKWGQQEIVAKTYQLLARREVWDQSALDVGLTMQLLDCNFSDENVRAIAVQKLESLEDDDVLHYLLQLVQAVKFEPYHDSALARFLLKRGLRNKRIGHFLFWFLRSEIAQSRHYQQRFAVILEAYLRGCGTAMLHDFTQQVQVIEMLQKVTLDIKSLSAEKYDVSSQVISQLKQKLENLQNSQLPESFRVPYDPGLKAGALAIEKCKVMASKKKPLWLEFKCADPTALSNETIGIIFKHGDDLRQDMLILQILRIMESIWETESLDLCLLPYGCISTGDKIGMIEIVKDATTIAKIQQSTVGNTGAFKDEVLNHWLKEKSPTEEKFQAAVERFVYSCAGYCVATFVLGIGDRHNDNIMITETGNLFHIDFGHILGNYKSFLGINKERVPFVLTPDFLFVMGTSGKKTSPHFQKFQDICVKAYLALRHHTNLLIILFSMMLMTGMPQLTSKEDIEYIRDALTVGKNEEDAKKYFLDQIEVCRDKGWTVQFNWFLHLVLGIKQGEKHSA

MYO3A (human) = MYO3A (human) (UniProt Q8NEV4)
MYO3A (human), sequence (Q8NEV4 whole entry, looked up): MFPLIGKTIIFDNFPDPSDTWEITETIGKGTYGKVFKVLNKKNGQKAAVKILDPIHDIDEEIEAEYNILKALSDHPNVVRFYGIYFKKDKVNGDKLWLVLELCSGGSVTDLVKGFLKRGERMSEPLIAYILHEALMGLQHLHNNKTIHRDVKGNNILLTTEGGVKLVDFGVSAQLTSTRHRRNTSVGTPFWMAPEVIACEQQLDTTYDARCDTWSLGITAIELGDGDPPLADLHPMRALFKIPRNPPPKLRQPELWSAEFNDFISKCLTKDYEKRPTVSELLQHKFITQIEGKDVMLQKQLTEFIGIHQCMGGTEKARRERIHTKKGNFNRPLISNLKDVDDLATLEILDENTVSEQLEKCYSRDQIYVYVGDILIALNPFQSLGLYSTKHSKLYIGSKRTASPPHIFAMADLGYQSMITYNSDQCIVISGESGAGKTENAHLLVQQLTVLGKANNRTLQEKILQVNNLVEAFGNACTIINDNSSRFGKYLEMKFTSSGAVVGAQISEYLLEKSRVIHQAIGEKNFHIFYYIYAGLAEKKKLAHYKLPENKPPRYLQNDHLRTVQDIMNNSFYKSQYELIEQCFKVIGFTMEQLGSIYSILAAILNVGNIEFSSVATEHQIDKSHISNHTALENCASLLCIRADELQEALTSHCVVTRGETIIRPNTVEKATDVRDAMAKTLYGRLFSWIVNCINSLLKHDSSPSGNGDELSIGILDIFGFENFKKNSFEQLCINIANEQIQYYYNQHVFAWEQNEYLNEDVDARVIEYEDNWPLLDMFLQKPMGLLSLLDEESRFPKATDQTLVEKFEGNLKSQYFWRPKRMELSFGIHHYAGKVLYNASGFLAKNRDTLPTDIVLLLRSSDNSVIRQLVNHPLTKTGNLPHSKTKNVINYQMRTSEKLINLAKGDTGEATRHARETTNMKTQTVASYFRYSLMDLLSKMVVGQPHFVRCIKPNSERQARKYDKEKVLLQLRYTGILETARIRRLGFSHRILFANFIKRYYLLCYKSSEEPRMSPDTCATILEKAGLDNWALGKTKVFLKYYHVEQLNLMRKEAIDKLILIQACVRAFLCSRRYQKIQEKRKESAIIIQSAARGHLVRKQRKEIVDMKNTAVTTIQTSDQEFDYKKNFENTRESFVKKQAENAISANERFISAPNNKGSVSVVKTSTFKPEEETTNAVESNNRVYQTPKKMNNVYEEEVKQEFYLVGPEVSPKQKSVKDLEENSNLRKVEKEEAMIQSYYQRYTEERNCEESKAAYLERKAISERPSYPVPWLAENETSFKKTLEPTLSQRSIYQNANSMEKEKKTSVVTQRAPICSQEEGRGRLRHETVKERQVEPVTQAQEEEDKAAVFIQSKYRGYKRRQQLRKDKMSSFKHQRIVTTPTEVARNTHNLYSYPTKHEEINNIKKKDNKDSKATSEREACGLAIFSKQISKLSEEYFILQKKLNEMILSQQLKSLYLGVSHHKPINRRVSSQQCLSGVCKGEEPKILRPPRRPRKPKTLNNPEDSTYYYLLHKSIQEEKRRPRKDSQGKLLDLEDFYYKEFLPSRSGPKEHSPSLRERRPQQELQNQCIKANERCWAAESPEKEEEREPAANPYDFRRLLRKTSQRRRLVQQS

STK38L (human) = STK38L (human) (UniProt Q9Y2H1)
ERBB4 (human) = ERBB4 (human) (UniProt Q15303)
RPS6KA5 KD1 (human) = RPS6KA5 KD1 (human) (UniProt O75582)

| SMILES | kinase still bound, per cent of control (CDK4 CCND1 (human)) [%] | kinase still bound, per cent of control (WNK3 (human)) [%] | kinase still bound, per cent of control (IKBKB (human)) [%] | kinase still bound, per cent of control (ALK (human)) [%] | kinase still bound, per cent of control (STK32B (human)) [%] | kinase still bound, per cent of control (PIP4K2B (human)) [%] | kinase still bound, per cent of control (MAP3K2 (human)) [%] | kinase still bound, per cent of control (RPS6KA4 KD2 (human)) [%] | kinase still bound, per cent of control (MAP3K11 (human)) [%] | kinase still bound, per cent of control (PDGFRB (human)) [%] | kinase still bound, per cent of control (DAPK2 (human)) [%] | kinase still bound, per cent of control (MAP3K6 (human)) [%] | kinase still bound, per cent of control (DYRK1A (human)) [%] | kinase still bound, per cent of control (CSNK1A1 (human)) [%] | kinase still bound, per cent of control (IGF1R (human)) [%] | kinase still bound, per cent of control (BRAF (human)) [%] | kinase still bound, per cent of control (TAOK1 (human)) [%] | kinase still bound, per cent of control (EPHB2 (human)) [%] | kinase still bound, per cent of control (NEK5 (human)) [%] | kinase still bound, per cent of control (PRKD2 (human)) [%] | further results |
| --- | --- | --- | --- | --- | --- | --- | --- | --- | --- | --- | --- | --- | --- | --- | --- | --- | --- | --- | --- | --- | --- |
| CNC(=O)Nc1ccc(-c2nc(N3CC4CCC(C3)O4)c3cnn(C4CCC5(CC4)OCCO5)c3n2)cc1 | 90 | 100 | 79 | 42 | 86 | 100 | 95 | 100 | 100 | 89 | 100 | 80 | 100 | 100 | 93 | 100 | 100 | 78 | 81 | 100 | kinase still bound, per cent of control (KIT (human)): 91% and 93%; kinase still bound, per cent of control (SRMS (human)): 97%; kinase still bound, per cent of control (CDK15 (human)): 100%; kinase still bound, per cent of control (IKBKE (human)): 100%; kinase still bound, per cent of control (BUB1 (human)): 52%; kinase still bound, per cent of control (GSG2 (human)): 100%; kinase still bound, per cent of control (GSK3A (human)): 82%; kinase still bound, per cent of control [1]: 100%; kinase still bound, per cent of control (STK24 (human)): 96%; kinase still bound, per cent of control (ACVR1B (human)): 100%; kinase still bound, per cent of control [2]: 89%; kinase still bound, per cent of control (MAK (human)): 100%; kinase still bound, per cent of control (SIK1 (human)): 86%; kinase still bound, per cent of control (PIK3CG (human)): 72%; kinase still bound, per cent of control (MYO3A (human)): 52%; kinase still bound, per cent of control (STK38L (human)): 100%; kinase still bound, per cent of control (ERBB4 (human)): 100%; kinase still bound, per cent of control (RPS6KA5 KD1 (human)): 86% |
| O=c1[nH]c2ccccc2n1C1CCN(Cc2ccc(-c3nc4cc5[nH]cnc5cc4nc3-c3ccccc3)cc2)CC1 | 100 | 95 | 79 | 37 | 88 | 88 | 100 | 82 | 100 | 72 | 100 | 100 | 90 | 50 | 100 | 87 | 91 | 72 | 97 | 95 | kinase still bound, per cent of control (KIT (human)): 95% and 89%; kinase still bound, per cent of control (SRMS (human)): 65%; kinase still bound, per cent of control (CDK15 (human)): 76%; kinase still bound, per cent of control (IKBKE (human)): 100%; kinase still bound, per cent of control (BUB1 (human)): 64%; kinase still bound, per cent of control (GSG2 (human)): 100%; kinase still bound, per cent of control (GSK3A (human)): 100%; kinase still bound, per cent of control [1]: 66%; kinase still bound, per cent of control (STK24 (human)): 100%; kinase still bound, per cent of control (ACVR1B (human)): 100%; kinase still bound, per cent of control [2]: 100%; kinase still bound, per cent of control (MAK (human)): 100%; kinase still bound, per cent of control (SIK1 (human)): 100%; kinase still bound, per cent of control (PIK3CG (human)): 25%; kinase still bound, per cent of control (MYO3A (human)): 100%; kinase still bound, per cent of control (STK38L (human)): 82%; kinase still bound, per cent of control (ERBB4 (human)): 66%; kinase still bound, per cent of control (RPS6KA5 KD1 (human)): 100% |
| COc1cc2ncnc(Nc3cccc(Cl)c3)c2cc1OC | 90 | 78 | 66 | 25 | 100 | 97 | 30 | 91 | 100 | 30 | 60 | 43 | 40 | 35 | 100 | 64 | 38 | 67 | 93 | 86 | kinase still bound, per cent of control (SRMS (human)): 60%; kinase still bound, per cent of control (CDK15 (human)): 75%; kinase still bound, per cent of control (IKBKE (human)): 55%; kinase still bound, per cent of control (BUB1 (human)): 0.3%; kinase still bound, per cent of control (GSG2 (human)): 100%; kinase still bound, per cent of control (GSK3A (human)): 84%; kinase still bound, per cent of control [1]: 55%; kinase still bound, per cent of control (STK24 (human)): 87%; kinase still bound, per cent of control (ACVR1B (human)): 100%; kinase still bound, per cent of control [2]: 27%; kinase still bound, per cent of control (MAK (human)): 100%; kinase still bound, per cent of control (SIK1 (human)): 100%; kinase still bound, per cent of control (PIK3CG (human)): 44%; kinase still bound, per cent of control (MYO3A (human)): 83%; kinase still bound, per cent of control (STK38L (human)): 87%; kinase still bound, per cent of control (ERBB4 (human)): 3.5%; kinase still bound, per cent of control (RPS6KA5 KD1 (human)): 100% |
